Source: patent US8569243B2, “Sirtuin 6 activating peptides and cosmetic or pharmaceutical composition containing them” (ISP Investments Inc., priority 2010, dated 2013)
Where no end group is shown, it is not given here.

Legend:
TRF2 protein [1] = test: TRF2 immunolabelling in normal human keratinocytes (NHK), long-term culture; format: cell-based
Procedure: (§1) The goal of this study is to determine the influence of peptide SEQ ID No. 4 on TRF2 protein expression in human skin, a protein specifically associated with telomeres and involved in their maintenance. To do this, specific labeling by immunofluorescence was carried out on normal human keratinocytes (NHK) culture and on normal human fibroblast cultures on a long-term basis.
(§2) Protocol: NHK or normal human fibroblasts in culture are treated once per day with a solution at 10^−6M or at 3×10^−6M of peptide SEQ ID No. 4, between passage 5 and passage 17 (or 12 passages) for fibroblasts and between passage 1 and passage 2 (or 1 passage and 10 days of treatment) for NHK.
(§3) For immunolabelling by anti TRF2 antibodies, the cells are washed and fixed with paraformaldehyde at 3.7% for 10 minutes. The cells are then incubated in the presence of a specific anti TRF2 antibody (Abeam, ref ab13579, polyclonal mouse), and then a secondary suitable antibody, coupled with a fluorescent dye. After mounting in a particular medium, the slides are observed by epifluorescence microscope (Nikon Eclipse E 80i microscope). Fluorescence intensity is quantified by analyzing the image using the Image-Pro Analyser version 5 software.

TRF2 protein [2] = test: TRF2 immunolabelling in normal human fibroblasts, long-term culture; format: cell-based
Procedure: as §1, §2, §3

involucrin = test: Epidermal differentiation marker immunolabelling in NHK: involucrin; format: cell-based, human; conditions: 10^−6 M or 3×10^−6 M, 2 passages and 11 days of treatment
Procedure: (§4) The goal of this study is to determine the influence of peptide SEQ ID No. 5 on epidermal differentiation. To do this, the expression of the main epidermal differentiation markers, specifically expressed in the keratinocytes of suprabasal layers cultivated on a long-term basis, was studied. The markers tested are transglutaminase 1 and involucrin.
(§5) Protocol: NHK in culture are treated once per day with a solution at 10^−6M or at 3×10^−6M of peptide SEQ ID No. 5, between passage 1 and passage 3 (or 2 passages and 11 days of treatment). The cells are then washed and fixed. After unmasking the specific sites, the cells are incubated in the presence of a specific antibody directed against TG1 (TEBU, ref sc-25786, polyclonal rabbit), a specific antibody directed against involucrin (Novocastra NCL-INV, mouse monoclonal, clone SYS), and then incubated in the presence of a suitable secondary antibody, coupled with a fluorescent dye. For greater ease of observation, the cell nuclei may be counterstained by DAPI (4′,6′ Di Amidino-2-Phenylindole), a fluorescent blue molecule capable of strongly bonding to DNA). After mounting in a particular medium, the slides are observed by epifluorescence microscope (Nikon Eclipse E 80i microscope).

sirtuin 6 (SIRT6) [3] = test: Sirtuin 6 immunolabelling (immunofluorescence) in normal human fibroblasts; format: cell-based; conditions: for SIRT6 fluorescence versus control conditions: 10^−6M or 3×10^−6 M, all conditions tested (short- and long-term); for sirtuin 6 expression stimulation effect in long-term treatment: passage 5 to passage 17
Procedure: (§6) The object of this study is to determine the influence of peptides SEQ ID No. 5 and SEQ ID No. 7 on Sirtuin 6 expression in human skin. To do this, specific labeling by immunofluorescence was carried out on normal human keratinocytes (NHK) culture and on normal human fibroblast cultures.
(§7) Protocol: NHK or normal human fibroblasts are treated once per day with a solution at 10^−6M or at 3×10^−6M of peptide SEQ ID No. 5 or peptide SEQ ID No. 7.
(§8) Short-term treatment studies for 24, 48 and 72 hours were carried out.
(§9) Long-term treatment studies were also carried out between passage 5 and passage 17 (or 12 passages) for fibroblasts and between passage 3 and passage 5 (or 2 subcultures) for NHK.
as §3, with “SIRT6” for “TRF2”, “ab62738,” for “ab13579,”, “rabbit),” for “mouse),”

collagen III = test: Collagen III immunolabelling in normal human fibroblasts, long-term culture; format: cell-based; conditions: 10^−6M or 3×10^−6M, passage 5 to 17
Procedure: (§10) The goal of this study is to determine the influence of peptide SEQ ID No. 5 on the expression of dermal extracellular matrix molecules. To do this, the expression of collagens I and III in normal human fibroblasts cultivated on a long-term basis was studied.
(§11) Protocol: Normal human fibroblasts are treated once per day with a solution at 10^−6 M or at 3×10^−6 M of peptide SEQ ID No. 5, between passage 5 and passage 17 (or 12 passages). The cells are then washed and fixed with cold methanol for 5 minutes. After unmasking specific sites, the cells are incubated in the presence of a specific antibody directed against collagen I (TEBU, ref 600-401-103, polyclonal rabbit) or against collagen III (TEBU, ref 600-401-105, polyclonal rabbit), and then incubated in the presence of a suitable secondary antibody, coupled with a fluorescent dye. After mounting in a particular medium, the slides are observed by epifluorescence microscope (Nikon Eclipse E 80i microscope).

sirtuin 6 (SIRT6) [4] = test: Sirtuin 6 immunolabelling in NHK after oxidative stress by H2O2; format: cell-based, human
Procedure: The goal of this study is to determine the protective effect of peptide SEQ ID No. 5 on keratinocytes during oxidative stress. To do this, the expression of Sirtuin 6 was qualitatively and quantitatively evaluated by specific immunolabelling after oxidative stress by H2O2.
Protocol: The NHK in culture are treated for 24 hours with a solution at 10^−6M or 3×10^−6M of peptide SEQ ID No. 5. The cells are then incubated in the presence of H2O2 at 2 mM, rinsed and then treated for another 24 hours with a solution at 10^−6M or 3×10^−6M of peptide SEQ ID No. 5. A control that was not treated and not subjected to the H2O2 stress (control 0), as well as a control that was not treated but was subjected to the H2O2 stress (control 1) were carried out.
as §3, with “SIRT6” for “TRF2”, “(Abcam,” for “(Abeam,”, “ab62738,” for “ab13579,”

transglutaminase 1 (TG1) = test: Epidermal differentiation marker immunolabelling in NHK: transglutaminase 1; format: cell-based, human; conditions: 10^−6 M or 3×10^−6 M, 2 passages and 11 days of treatment
Procedure: as §4, §5

normal human fibroblasts = test: Comet assay after UVB irradiation of normal human fibroblasts; format: cell-based; conditions: peptide 3×10^−6 M 24 h before and 24 h after UVB 60 mJ/cm^2
Procedure: The goal of this study is to determine the protective effect of peptide SEQ ID No. 5 on damage caused to the DNA by UV radiation. To do this, a comet assay, that enables damage caused to the DNA at the cellular level to be quantified, was performed.
Protocol: Normal human fibroblasts are cultured for 24 hours with the peptide of sequence SEQ ID No. 5 at a concentration of 10^−6M or 3×10^−6M, and then irradiated with UVB radiation at a rate of 60 mJ/cm^2, and then treated again for 24 hours by the peptide at a concentration of 10^−6M or 3×10^−6M. A control condition is carried out in the absence of treatment. The cells are then detached from their support by the trypsin, then centrifuged at 1200 rotations/min for 10 minutes in order to concentrate and count them.
A defined number of cells (25,000 cells) is then included in a Low Melting agarose gel at 0.75%, and then deposited on a glass slide previously covered with agarose at 1%. The slides are then immersed in a lysis solution for 1½ hours at 4° C., and then in an alkaline solution for 20 min at 4° C. The cells are thus lyzed and the DNA is denatured. […]
Quantification software enables the mean “Tail Moment” (or length of the comet tail) applied to each condition tested to be determined This parameter provides information on the level of DNA damage: the higher this parameter, the greater the DNA degradation.

sirtuin 6 (SIRT6) [5] = test: Sirtuin 6 immunolabelling (immunofluorescence) in normal human keratinocytes (NHK); format: cell-based; conditions: for SIRT6 fluorescence versus control conditions: 10^−6M or 3×10^−6 M, all conditions tested (short- and long-term); for sirtuin 6 expression stimulation effect in long-term treatment: passage 3 to passage 5
Procedure: as §6, §7, §8, §9
as §3, with “SIRT6” for “TRF2”, “ab62738,” for “ab13579,”, “rabbit),” for “mouse),”

collagen I = test: Collagen I immunolabelling in normal human fibroblasts, long-term culture; format: cell-based; conditions: 10^−6M or 3×10^−6M, passage 5 to 17
Procedure: as §10, §11

[6] = 10^−6 M or 3×10^−6 M, long-term

| transglutaminase 1 fluorescence versus control conditions (transglutaminase 1 (TG1)) | Substance | TRF2 fluorescence versus control conditions (TRF2 protein [1]; [6]) | maximum increase of the TRF2 fluorescence with relation to the control cells (TRF2 protein [1]; treated for 10 days, 3×10^−6 M peptide) | TRF2 fluorescence versus control conditions (TRF2 protein [2]; [6]) | maximum increase of the TRF2 fluorescence with relation to the control cells (TRF2 protein [2]; treated for 12 subcultures, 10^−6 M peptide) | involucrin fluorescence versus control conditions (involucrin) | SIRT6 fluorescence versus control conditions (sirtuin 6 (SIRT6) [3]) | sirtuin 6 expression stimulation effect in long-term treatment (sirtuin 6 (SIRT6) [3]) | maximum increase of the SIRT6 fluorescence with relation to the control cells (sirtuin 6 (SIRT6) [3]; treated 24 hours, 10^−6 M peptide) | collagen III fluorescence versus control conditions (collagen III) | increase in SIRT6 expression with relation to control 1 (untreated, H2O2 stress) (sirtuin 6 (SIRT6) [4]; peptide 3×10^−6 M 24 h before and 24 h after H2O2 2 mM) | increase in SIRT6 expression with relation to control 1 (untreated, H2O2 stress) (sirtuin 6 (SIRT6) [4]; peptide 10^−6M 24 h before and 24 h after H2O2 2 mM) | reduction of the Tail Moment compared to the control conditions (normal human fibroblasts) | SIRT6 fluorescence versus control conditions (sirtuin 6 (SIRT6) [5]) | sirtuin 6 expression stimulation effect in long-term treatment (sirtuin 6 (SIRT6) [5]) | maximum increase of the SIRT6 fluorescence with relation to the control cells (sirtuin 6 (SIRT6) [5]; treated 72 hours, 3×10^−6M peptide) | collagen I fluorescence versus control conditions (collagen I) |
| --- | --- | --- | --- | --- | --- | --- | --- | --- | --- | --- | --- | --- | --- | --- | --- | --- | --- |
| – | GAGVSAE [SEQ ID No. 4] | more intense fluorescence | 39% | more intense fluorescence | 63% | – | – | – | – | – | – | – | – | – | – | – | – |
| More intense fluorescence | Gly-Ala-Gly-Val-Ser-Ala-Glu-NH2 (GAGVSAE-NH2) [SEQ ID No. 5] | – | – | – | – | More intense fluorescence | more intense fluorescence | maintained for the long term | 47% | More intense fluorescence | 20% | 16% | 24.8% | more intense fluorescence | maintained for the long term | 35% | More intense fluorescence |
| – | Thr-Gln-Asn-Ile-Asp-Glu-Leu-NH2 (TQNIDEL-NH2) [SEQ ID No. 7] | – | – | – | – | – | more intense fluorescence | maintained for the long term | – | – | – | – | – | more intense fluorescence | maintained for the long term | – | – |
